From patent publication US7273847B2, “Peptides with antioxidant and antimicrobial properties” (priority 2000, dated 2007)

Assays:
E. coli strain (E69) = test: Growth inhibition (radius of clearing) of E. coli clinical isolate with or without OmpA; format: cell-based; details: for Growth inhibition of ΔOmpA bacteria with plasmid driven OmpA expression: OmpA replaced; for Growth inhibition of OmpA deficient (ΔOmpA) E. coli: judged by the radius of clearing around the well
Procedure: SP-A has been reported to bind to the outer membrane protein (OmpA) of Hemophilus influenza, a porin that facilitates the uptake of nutrients from the environment. The hypothesis that binding of collectins to OmpA mediates bacterial growth inhibition by SP-A and SP-D was tested. These experiments were performed using a genetically engineered clinical isolate of E. coli that was rendered OmpA deficient (ΔOmpA) by transposon mutagenesis.

E. coli = test: CFU count over a six hour incubation; format: cell-based; details: at 1 and 2 hrs; confounded by bacterial aggregation
E. coli K12 = test: Radial diffusion growth inhibition in agar; format: cell-based; details: radial diffusion, overnight 37° C.
Procedure: (§1) A radial diffusion method was therefore used to examine the effect of the collectins and their individual structural domains on the growth of E. coli that were immobilized in agar (FIGS. 8,9). Wells were bored into plates containing agar impregnated with 2×10^6 E. coli/ml or GBS. Proteins to be tested were introduced into the wells and the plates were incubated overnight at 37° C.

GBS = test: Radial diffusion growth inhibition in agar; format: cell-based; details: radial diffusion (not shown)
Procedure: as §1

[1] = system: P. aeruginosa (PAO1 mutant); test: Radial diffusion assay; format: cell-based
LDL = test: Western (immunoblot) analysis of protein carbonyl derivatives formed during copper mediated LDL oxidation; format: biochemical, human; details: SP-A 10 μg/ml, SP-D 1 μg/ml; alkylated SP-A 50 μg/ml, alkylated SP-D 10 μg/ml
Procedure: Proteins were analyzed for carbonyl modification of amino acid side groups that occur during lipid oxidation, as described in Levine et al., Methods Enzymol. 186, 464-478 (1990). Briefly, proteins that were included in reactions mixtures with LDL and 10 μM copper were derivatized to 2,4-dinitrophenylhydrazones (DNP-hydrazones) by reaction with 2,4-dinitrophenylhydrazine (DNPH), size fractionated by 8-16% SDS-PAGE under reducing conditions and electrophorectically transferred to nitrocellulose membranes (Oxyblot, Intergen). The membrane was sequentially incubated with a rabbit anti-DNP IgG and a horseradish peroxidase-conjugated goat anti-rabbit IgG. Blots were developed by HRP-dependent oxidation of a chemiluminescent substrate, and visualized using autoradiography.
To determine if the surfactant proteins act as sinks for reactive lipid intermediates, covalent modification of SP-A and SP-D during LDL oxidation was assessed using a western analysis technique that detects carbonyl adducts (Levine et al., Methods Enzymol. 186: 464-78 (1990)). As depicted by FIG. 4, oxidative modification of proteins that occurred during copper induced LDL oxidation were determined by Western analysis using an antibody to DNP-derivatized carbonyl moieties. Reaction mixtures contained LDL only, LDL+Cu^2+, LDL+Cu^2++albumin+10 μg/ml SP-A, LDL+Cu^2++albumin+1 μg/ml SP-D, LDL+Cu^2++albumin, LDL+Cu^2++albumin+50 μg/ml iodoacetamide treated SP-A, LDL+Cu^2++albumin+10 μg/ml iodoacetamide treated SP-D, 50 μg/ml albumin+50 μg/ml iodoacetamide treated SP-A, albumin+10 μg/ml iodoacetamide treated SP-D.

| Molecule | Growth inhibition of ΔOmpA bacteria with plasmid driven OmpA expression (E. coli strain (E69)) | Growth inhibition of ΔOmpA organism with empty vector control (E. coli strain (E69)) | Growth inhibition of OmpA deficient (ΔOmpA) E. coli (E. coli strain (E69)) | Growth of parental E. coli strain (E69) (E. coli strain (E69)) | Decrease in number of CFUs (E. coli) | Growth of E. coli K12 (E. coli K12) | Growth of GBS (GBS) | Growth of P. aeruginosa (PAO1 mutant) [1] | LDL oxidation in carbonyl Western analysis (LDL) |
| --- | --- | --- | --- | --- | --- | --- | --- | --- | --- |
| SP-A: Native surfactant protein A isolated from the alveolar wash of silica-pretreated rats | attenuated growth inhibition | inhibited to the same extent as the ΔOmpA organism | growth inhibition was increased | inhibited the growth | 90% | inhibited the growth | not GBS | inhibited the growth | blocked LDL oxidation without the appearance of carbonyl-modified species |
| SP-D: Native surfactant protein D from rat alveolar wash; mouse SP-D was used interchangeably with rat SP-D (protein) AEMKSLSQRSVPNTCTLVMCSPTENGLPGRDGRDGREGPRGEKGDPGLPGPMGLSGLQGPTGPVGPKGENGSAGEPGPKGERGLSGPPGLPGIPGPAGKEGPSGKQGNIGPQGKPGPKGEAGPKGEVGAPGMQGSTGAKGSTGPKGERGAPGVQGAPGNAGAAGPAGPAGPQGAPGSRGPPGLKGDRGVPGDRGIKGESGLPDSAALRQQMEALKGKLQRLEVAFSHYQKAALFPDGRSVGDKIFRTADSEKPFEDAQEMCKQAGGQLASPRSATENAAIQQLITAHNKAAFLSMTDVGTEGKFTYPTGEPLVYSNWAPGEPNNNGGAENCVEIFTNGQWNDKACGEQRLVICEF | attenuated growth inhibition | inhibited to the same extent as the ΔOmpA organism | growth inhibition was increased | inhibited the growth |  | inhibited the growth | not GBS |  | blocked LDL oxidation without the appearance of carbonyl-modified species |
